Measured values from patent US20230220035A1 (DONG-A ST CO., LTD., published 2023).
*1 amine or outer side, *2 acyl side, *3 side chain or, on linkers, in order; H or OH if unused. Side-chain parts run from the residue outwards. [ ]: non-standard residue; d: D form. The star is where a group is joined. γGlu = O=C(O)[C@H](CCC(=O)[*:2])N[*:1]; Stearoyl = CCCCCCCCCCCCCCCCCC(=O)*; Palmitoyl = CCCCCCCCCCCCCCCC(=O)*; AEEA = NCCOCCOCC(=O)O; Aib = CC(C)(N)C(=O)O

Experiments:
[1] = in vivo; settings: cynomolgus monkey, sc
Description: Cynomolgus monkeys were used to evaluate the pharmacokinetics in monkeys of the acylated oxyntomodulin peptide analogs according to the present invention.

[2] = target: glucagon receptor (Homo sapiens, UniProt P47871); test: Human glucagon receptor activation assay (CRE-luciferase); type: cell-based; design: host or cells: CHO-K1; settings: CHO-K1 cells transiently transfected; for Emax: 6 h, relative to glucagon, read-out: GCG receptor Maximum activation (% vs GCG); for EC50: 6 hours, 0.1% BSA, read-out: GCG receptor EC50
Chain of glucagon receptor (P47871 26-477): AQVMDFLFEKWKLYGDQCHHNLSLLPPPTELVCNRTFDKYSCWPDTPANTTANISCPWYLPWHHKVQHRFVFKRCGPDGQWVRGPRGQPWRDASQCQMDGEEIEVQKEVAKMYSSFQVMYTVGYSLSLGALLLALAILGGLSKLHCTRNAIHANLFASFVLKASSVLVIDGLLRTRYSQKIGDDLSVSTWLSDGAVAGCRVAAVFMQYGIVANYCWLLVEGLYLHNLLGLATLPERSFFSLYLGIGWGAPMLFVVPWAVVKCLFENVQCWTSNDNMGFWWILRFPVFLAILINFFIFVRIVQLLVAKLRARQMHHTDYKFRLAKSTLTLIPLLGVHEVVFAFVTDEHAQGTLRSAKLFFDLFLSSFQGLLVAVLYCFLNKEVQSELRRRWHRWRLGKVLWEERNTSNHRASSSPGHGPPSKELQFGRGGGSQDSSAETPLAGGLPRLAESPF
Description: (§1) Then, the resulting increased luciferase activity was evaluated as a measurement of the effect on each receptor activation.
(§2) For positive control, endogenous ligand GLP-1 or glucagon was used for respective evaluation. The above-mentioned acylated oxyntomodulin peptide analogs of Comparative Example 8-12 were synthesized and used as comparative examples.
(§3) After 3 hours of transfection, medium was exchanged to Alpha Minimal Essential Medium (α-MEM) comprising 10% fetal bovine serum (FBS). Next day, the medium was exchanged to α-MEM comprising the acylated oxyntomodulin peptide analog of the present invention and 0.1% bovine serum albumin (BSA). After 6 hours, dual luciferase assay reagent (Promega) was added in the same amount as the medium in which the cells were submerged, and firefly luciferase and Renilla luciferase activities were successively measured. Firefly luciferase activity values were corrected against Renilla luciferase activity to yield transfection efficiency.

[3] = in vivo; settings: ICR, mouse, sc
Description: ICR mice were used to evaluate the pharmacokinetics in mice of the acylated oxyntomodulin peptide analogs according to the present invention.

[4] = target: GLP-1 receptor (Homo sapiens, UniProt P43220); test: Human GLP-1 receptor activation assay (CRE-luciferase); type: cell-based; design: host or cells: CHO-K1; settings: for Emax: CHO-K1, 6 h, read-out: GLP-1 receptor Maximum activation (% vs GLP-1); for EC50: CHO-K1 cells transiently transfected, luciferase, 6 hours, 0.1% BSA
Chain of GLP-1 receptor (P43220 24-463): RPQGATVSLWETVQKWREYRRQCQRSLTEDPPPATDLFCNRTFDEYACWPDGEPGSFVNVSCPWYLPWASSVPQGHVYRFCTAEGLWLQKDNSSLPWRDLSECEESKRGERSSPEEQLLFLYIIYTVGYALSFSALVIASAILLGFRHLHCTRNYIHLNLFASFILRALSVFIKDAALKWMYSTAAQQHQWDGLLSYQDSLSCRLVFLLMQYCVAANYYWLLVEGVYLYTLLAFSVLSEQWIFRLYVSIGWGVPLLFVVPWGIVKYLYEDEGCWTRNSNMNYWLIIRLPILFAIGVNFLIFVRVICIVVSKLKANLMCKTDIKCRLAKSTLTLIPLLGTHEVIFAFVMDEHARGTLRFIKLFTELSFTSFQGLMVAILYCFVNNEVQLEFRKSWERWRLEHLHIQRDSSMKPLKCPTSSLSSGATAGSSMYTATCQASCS
Description: as §1, §2, §3

[5] = target: Human GLP-1 receptor (human, UniProt P43220); test: cell-based or functional assay
[6] = target: Human glucagon receptor (human, UniProt P47871); test: cell-based or functional assay

Molecule | half-life ([1]; Monkey PK (S.C. half-life)) [h] | half-life ([1]; monkey PK half-life) [h] | Emax [2] [%] | EC50 [2] [nM] | half-life ([3]; Mouse PK (S.C. half-life)) [h] | half-life ([3]; half-life in mice) [h] | Emax [4] [%] | EC50 [4] [nM] | Maximum activation (% vs GLP-1) [5] [%] | Maximum activation (% vs GCG) [6] [%] | EC50 [5] [nM] | EC50 [6] [nM]
CCCCCCCCCCCCCCCCCC(=O)N[C@@H](CCC(=O)NCCOCCOCC(=O)NCCOCCOCC(=O)NCCCC[C@H](NC(=O)[C@H](CC(=O)O)NC(=O)[C@H](CO)NC(=O)[C@@H](NC(=O)[C@H](Cc1ccccc1)NC(=O)[C@@H](NC(=O)CNC(=O)[C@H](CCC(N)=O)NC(=O)C(C)(C)NC(=O)[C@@H](N)Cc1c[nH]cn1)[C@@H](C)O)[C@@H](C)O)C(=O)N[C@@H](CO)C(=O)N[C@@H](CCCCN)C(=O)N[C@@H](Cc1ccc(O)cc1)C(=O)N[C@@H](CC(C)C)C(=O)N[C@@H](CC(=O)O)C(=O)NC(C)(C)C(=O)N[C@@H](CCCNC(=N)N)C(=O)N[C@@H](CCCNC(=N)N)C(=O)N[C@@H](C)C(=O)N[C@@H](CCC(N)=O)C(=O)N[C@@H](CC(=O)O)C(=O)N[C@@H](Cc1ccccc1)C(=O)N[C@H](C(=O)N[C@@H](CCC(N)=O)C(=O)N[C@@H](Cc1c[nH]c2ccccc12)C(=O)N[C@@H](CC(C)C)C(=O)N[C@@H](CCSC)C(=O)N[C@@H](CC(N)=O)C(=O)N[C@H](C(=O)N[C@@H](CCCCN)C(=O)N[C@@H](CCC(=O)O)C(=O)N[C@@H](Cc1ccc(O)cc1)C(=O)N[C@@H](CCC(=O)O)C(=O)N[C@@H](CCCCNC(=O)CCCCCCCCCCCCCCC(=O)O)C(=O)N[C@@H](CCC(=O)O)C(=O)N[C@@H](Cc1ccc(O)cc1)C(=O)N[C@@H](CCC(=O)O)C(=O)O)[C@@H](C)O)C(C)C)C(=O)O [Compound 2] | 12 to 18 | > 12 | 100 | 0.1 to 1 | > 6 | > 6 | 104 | 0.1 to 1 | – | – | – | –
CCCCCCCCCCCCCCCCCC(=O)N[C@@H](CCC(=O)NCCOCCOCC(=O)NCCOCCOCC(=O)NCCCC[C@H](NC(=O)[C@H](CC(=O)O)NC(=O)[C@H](CO)NC(=O)[C@@H](NC(=O)[C@H](Cc1ccccc1)NC(=O)[C@@H](NC(=O)CNC(=O)[C@H](CCC(N)=O)NC(=O)C(C)(C)NC(=O)[C@@H](N)Cc1c[nH]cn1)[C@@H](C)O)[C@@H](C)O)C(=O)N[C@@H](CO)C(=O)N[C@@H](CCCCN)C(=O)N[C@@H](Cc1ccc(O)cc1)C(=O)N[C@@H](CC(C)C)C(=O)N[C@@H](CC(=O)O)C(=O)NC(C)(C)C(=O)N[C@@H](CCCNC(=N)N)C(=O)N[C@@H](CCCNC(=N)N)C(=O)N[C@@H](C)C(=O)N[C@@H](CCC(N)=O)C(=O)N[C@@H](CC(=O)O)C(=O)N[C@@H](Cc1ccccc1)C(=O)N[C@H](C(=O)N[C@@H](CCC(N)=O)C(=O)N[C@@H](Cc1c[nH]c2ccccc12)C(=O)N[C@@H](CC(C)C)C(=O)N[C@@H](CCSC)C(=O)N[C@@H](CC(N)=O)C(=O)N[C@H](C(=O)N[C@@H](CCCCN)C(=O)O)[C@@H](C)O)C(C)C)C(=O)O [Compound 8] | – | – | 103 | < 0.1 | < 6 | – | 99.3 | < 0.1 | – | – | – | –
CCCCCCCCCCCCCCCCCC(=O)N[C@@H](CCC(=O)NCCOCCOCC(=O)NCCOCCOCC(=O)NCCCC[C@H](NC(=O)[C@H](CC(=O)O)NC(=O)[C@H](CO)NC(=O)[C@@H](NC(=O)[C@H](Cc1ccccc1)NC(=O)[C@@H](NC(=O)CNC(=O)[C@H](CCC(N)=O)NC(=O)C(C)(C)NC(=O)[C@@H](N)Cc1c[nH]cn1)[C@@H](C)O)[C@@H](C)O)C(=O)N[C@@H](CO)C(=O)N[C@@H](CCCCN)C(=O)N[C@@H](Cc1ccc(O)cc1)C(=O)N[C@@H](CC(C)C)C(=O)N[C@@H](CC(=O)O)C(=O)NC(C)(C)C(=O)N[C@@H](CCCNC(=N)N)C(=O)N[C@@H](CCCNC(=N)N)C(=O)N[C@@H](C)C(=O)N[C@@H](CCC(N)=O)C(=O)N[C@@H](CC(=O)O)C(=O)N[C@@H](Cc1ccccc1)C(=O)N[C@H](C(=O)N[C@@H](CCC(N)=O)C(=O)N[C@@H](Cc1c[nH]c2ccccc12)C(=O)N[C@@H](CC(C)C)C(=O)N[C@@H](CCSC)C(=O)N[C@@H](CC(N)=O)C(=O)N[C@H](C(=O)N[C@@H](CCCCN)C(=O)N[C@@H](CCC(=O)O)C(=O)N[C@@H](Cc1ccc(O)cc1)C(=O)N[C@@H](CCC(=O)O)C(=O)N[C@@H](CCCCNC(=O)CCCCCCCCCCCCC(=O)O)C(=O)N[C@@H](CCC(=O)O)C(=O)N[C@@H](Cc1ccc(O)cc1)C(=O)N[C@@H](CCC(=O)O)C(=O)O)[C@@H](C)O)C(C)C)C(=O)O [Compound 1] | 12 to 18 | > 12 | 107 | < 0.1 | > 6 | > 6 | 102 | < 0.1 | – | – | – | –
H-H[Aib]QGTFTSDK([AEEA-AEEA-γGlu-Stearoyl])SKYLD[Aib]RRAQDFVQWLMNTKEYEK(15‑carboxy‑1‑oxopentadecyl)EYE-OH [Compound 2] | – | – | – | – | – | – | – | – | 104 | 100 | – | –
H-H[Aib]QGTFTSDK([AEEA-AEEA-γGlu-Stearoyl])SKYLD[Aib]RRAQDFVQWLMNTKEYEK([AEEA-AEEA-AEEA-Palmitoyl])EYE-OH (SMILES CCCCCCCCCCCCCCCCCC(=O)N[C@@H](CCC(=O)NCCOCCOCC(=O)NCCOCCOCC(=O)NCCCC[C@H](NC(=O)[C@H](CC(=O)O)NC(=O)[C@H](CO)NC(=O)[C@@H](NC(=O)[C@H](Cc1ccccc1)NC(=O)[C@@H](NC(=O)CNC(=O)[C@H](CCC(N)=O)NC(=O)C(C)(C)NC(=O)[C@@H](N)Cc1c[nH]cn1)[C@@H](C)O)[C@@H](C)O)C(=O)N[C@@H](CO)C(=O)N[C@@H](CCCCN)C(=O)N[C@@H](Cc1ccc(O)cc1)C(=O)N[C@@H](CC(C)C)C(=O)N[C@@H](CC(=O)O)C(=O)NC(C)(C)C(=O)N[C@@H](CCCNC(=N)N)C(=O)N[C@@H](CCCNC(=N)N)C(=O)N[C@@H](C)C(=O)N[C@@H](CCC(N)=O)C(=O)N[C@@H](CC(=O)O)C(=O)N[C@@H](Cc1ccccc1)C(=O)N[C@H](C(=O)N[C@@H](CCC(N)=O)C(=O)N[C@@H](Cc1c[nH]c2ccccc12)C(=O)N[C@@H](CC(C)C)C(=O)N[C@@H](CCSC)C(=O)N[C@@H](CC(N)=O)C(=O)N[C@H](C(=O)N[C@@H](CCCCN)C(=O)N[C@@H](CCC(=O)O)C(=O)N[C@@H](Cc1ccc(O)cc1)C(=O)N[C@@H](CCC(=O)O)C(=O)N[C@@H](CCCCNC(=O)COCCOCCNC(=O)COCCOCCNC(=O)COCCOCCNC(=O)CCCCCCCCCCCCCCC)C(=O)N[C@@H](CCC(=O)O)C(=O)N[C@@H](Cc1ccc(O)cc1)C(=O)N[C@@H](CCC(=O)O)C(=O)O)[C@@H](C)O)C(C)C)C(=O)O) [Comparative Example Compound 12] | – | – | – | – | – | – | – | – | 102 | 89.6 | < 0.1 | < 0.1
H-H[Aib]QGTFTSDK([AEEA-AEEA-γGlu-Stearoyl])SKYLD[Aib]RRAQDFVQWLMNTKEYEK(Palmitoyl)EYE-OH (SMILES CCCCCCCCCCCCCCCCCC(=O)N[C@@H](CCC(=O)NCCOCCOCC(=O)NCCOCCOCC(=O)NCCCC[C@H](NC(=O)[C@H](CC(=O)O)NC(=O)[C@H](CO)NC(=O)[C@@H](NC(=O)[C@H](Cc1ccccc1)NC(=O)[C@@H](NC(=O)CNC(=O)[C@H](CCC(N)=O)NC(=O)C(C)(C)NC(=O)[C@@H](N)Cc1c[nH]cn1)[C@@H](C)O)[C@@H](C)O)C(=O)N[C@@H](CO)C(=O)N[C@@H](CCCCN)C(=O)N[C@@H](Cc1ccc(O)cc1)C(=O)N[C@@H](CC(C)C)C(=O)N[C@@H](CC(=O)O)C(=O)NC(C)(C)C(=O)N[C@@H](CCCNC(=N)N)C(=O)N[C@@H](CCCNC(=N)N)C(=O)N[C@@H](C)C(=O)N[C@@H](CCC(N)=O)C(=O)N[C@@H](CC(=O)O)C(=O)N[C@@H](Cc1ccccc1)C(=O)N[C@H](C(=O)N[C@@H](CCC(N)=O)C(=O)N[C@@H](Cc1c[nH]c2ccccc12)C(=O)N[C@@H](CC(C)C)C(=O)N[C@@H](CCSC)C(=O)N[C@@H](CC(N)=O)C(=O)N[C@H](C(=O)N[C@@H](CCCCN)C(=O)N[C@@H](CCC(=O)O)C(=O)N[C@@H](Cc1ccc(O)cc1)C(=O)N[C@@H](CCC(=O)O)C(=O)N[C@@H](CCCCNC(=O)CCCCCCCCCCCCCCC)C(=O)N[C@@H](CCC(=O)O)C(=O)N[C@@H](Cc1ccc(O)cc1)C(=O)N[C@@H](CCC(=O)O)C(=O)O)[C@@H](C)O)C(C)C)C(=O)O) [Comparative Example Compound 9] | – | – | – | – | – | – | – | – | 70.4 | 73.3 | – | –
H-H[Aib]QGTFTSDK([AEEA-AEEA-γGlu-Stearoyl])SKYLD[Aib]RRAQDFVQWLMNTKEYEK(13‑aminocarboxy‑1‑oxotridecyl)EYE-OH [Comparative Example Compound 10] | – | – | – | – | – | – | – | – | 105 | 110 | < 0.1 | < 0.1
H-H[Aib]QGTFTSDK([AEEA-AEEA-γGlu-Stearoyl])SKYLD[Aib]RRAQDFVQWLMNTKEYEK(15‑aminocarboxy‑1‑oxopentadecyl)EYE-OH [Comparative Example Compound 11] | – | – | – | – | – | – | – | – | 92.8 | 98.5 | < 0.1 | < 0.1
